In data set [1] the target is T1, CRF2R (Homo sapiens, UniProt Q13324).
T1 construct: expressed in transfected cells; host or cells: TeloHEAC
Briefly: EC50 [nM] CRF2R. An excerpt:
Table printed on a drawing sheet, Fig. 3
Head of the field: EC50 [nM] CRF2R
The patent's description of the figure: FIG. 3: Representative sequences from peptides according to the invention with an optimized stability profile, wherein K[sema] stands for K[gGlu-C(O)(CH2)14CH3]
First copying reader's note: Second half (positions 13-38, C-term and activity) of the first table; the rows follow the same order, so the four rows of Peptide Seq. 1 are Patent Sequence N° 130, 171, 172 and 173.
Where the first naming reader finds the target: head: EC50 [nM] CRF2R

In data set [2] the target is T2, CRF1R receptor (Homo sapiens, UniProt P34998).
T2 construct: host or cells: CHO-K1 clone 2
T2 sequence (P34998 24-415): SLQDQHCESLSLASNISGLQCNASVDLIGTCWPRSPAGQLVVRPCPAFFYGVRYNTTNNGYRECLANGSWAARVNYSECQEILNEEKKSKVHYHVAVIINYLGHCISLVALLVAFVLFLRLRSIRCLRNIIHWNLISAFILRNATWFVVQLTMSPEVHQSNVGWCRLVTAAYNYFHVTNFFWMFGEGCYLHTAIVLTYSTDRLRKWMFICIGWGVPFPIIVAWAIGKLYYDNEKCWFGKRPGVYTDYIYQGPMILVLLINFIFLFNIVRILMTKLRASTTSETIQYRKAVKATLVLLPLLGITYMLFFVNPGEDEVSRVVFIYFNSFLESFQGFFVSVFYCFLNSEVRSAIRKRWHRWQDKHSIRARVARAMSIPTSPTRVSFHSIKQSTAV
Briefly: cAMP activity at anti-target CRF1R, CHO-K1 cell line clone 2 (Example 19.10). Particulars: ratio of CRF1 EC50 to CRF2 EC50. The class given is cell-based. The method in brief: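 A CRF1R-overexpressing CHO-K1 line (clone 2) was grown in F12/10% FBS/G418 and frozen in aliquots before use. The cAMP assay followed the preceding procedure, with 100% activation defined by Sauvagine at 100 nM.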

Data set [3] in a line: Chemical stability as % loss by LC-UV, 28 days 40° C. vs 5° C. (Example 19.11). The class given is physicochemical. The method, then:
(§1) As for example 15 above, also the chemical stability of representative examples of these FA modified peptides has been assessed, using LC-UV instead of light scattering. Solubility and chemical stability were studied in 100 mM phosphate buffer (pH 7.4) and 100 mM acetate buffer (pH 4.5). Test compound powders were dissolved in both buffers at a target concentration of 10 mg/mL and incubated for 1 hour at room temperature. After centrifugation at 2500 rcf for 15 minutes, […] of supernatant was diluted with […] of the incubation buffer and analyzed by LC-UV (Acquity UPLC-DAD, Waters). Solubility was calculated by comparing the peak area of the test compound in the buffer sample with the peak area of the same compound dissolved at 0.5 mg/ml in water:acetonitrile 1:1, 0.1% formic acid.
From the centrifuged supernatant, two additional […] aliquots were collected and diluted with […] of incubation buffer. One aliquot was stored at 5° C., while the other was stored at 40° C. After 28 days, the samples were analyzed by LC-UV. Chemical stability was calculated as % loss using the following equations: • Chemical stability (as % loss)=[(purity after 28 days at 5° C.)−(purity after 28 days at 40° C.)]×100/(purity after 28 days at 5° C.) % purity=[(peak area compound)×100/(total peak area)]

A short description of data set [4]: Buffer solubility by LC-UV, pH 7.4 phosphate and pH 4.5 acetate (Example 19.11). The class given is physicochemical. The conditions noted are these: target 10 mg/mL. The method, then: as §1
For data set [5], the target named is T3, human CRF2α receptor (Homo sapiens, UniProt Q13324).
T3 construct: expressed in transfected cells; host or cells: TeloHEAC
T3 sequence (Q13324 1-411): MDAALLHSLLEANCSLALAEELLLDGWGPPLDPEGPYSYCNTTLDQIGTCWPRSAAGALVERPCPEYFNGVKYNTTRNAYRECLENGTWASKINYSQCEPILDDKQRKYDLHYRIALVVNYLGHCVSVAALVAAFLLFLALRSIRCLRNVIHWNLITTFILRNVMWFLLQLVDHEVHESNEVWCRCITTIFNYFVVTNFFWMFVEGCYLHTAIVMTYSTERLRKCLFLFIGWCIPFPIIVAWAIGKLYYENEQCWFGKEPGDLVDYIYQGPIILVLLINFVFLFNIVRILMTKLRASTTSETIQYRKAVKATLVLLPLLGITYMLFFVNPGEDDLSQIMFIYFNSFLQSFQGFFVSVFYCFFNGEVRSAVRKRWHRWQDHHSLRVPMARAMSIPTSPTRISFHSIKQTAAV
Briefly: cAMP agonism at human CRF2α receptor in TeloHEAC cells, FA modified peptides (Example 19.9). The class given is cell-based. Particulars: 0% HSA, relative to urocortin 2. An outline of the steps:
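Efficacy and EC50 are referenced to 100 nM urocortin 2 as 100%, with cAMP measured as the 665/620 nm HTRF ratio after 1 h at room temperature. Compounds (0.5 mM DMSO stock, 16 twofold dilutions) acted 30 min at 37 °C on CRF2α-expressing TeloHEAC cells, buffer containing IBMX and 0% or 0.2% HSA.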

In brackets after ≈: the same amount, converted by molar mass. Starred links: 1 amine or outer side, 2 acyl side, 3 side chain; linkers in the order of their positions; H or OH if unused. Non-standard residues stand in square brackets, D forms with d. Residues, ends and D or L forms follow the SMILES beside them. Groups on a side chain read outwards from the residue. *: point of attachment. C16 diacid = O=C(O)CCCCCCCCCCCCCCC(=O)*; γGlu = O=C(O)[C@H](CCC(=O)[*:2])N[*:1]; Palmitoyl = CCCCCCCCCCCCCCCC(=O)*; Aib = CC(C)(N)C(=O)O

The EC50 is the concentration giving half of the maximal effect. A higher EC50 goes with a less potent agent. The molecule `CCCCCCCCCCCCCCCC(=O)N[C@@H](CCC(=O)NCCCC[C@H](NC(=O)[C@H](CC(C)C)NC(=O)[C@H](CCCCN)NC(=O)[C@@H](NC(=O)[C@@H]1CCCN1C(=O)[C@@H](NC(=O)[C@H](CC(=O)O)NC(=O)[C@H](CC(C)C)NC(=O)[C@H](CO)NC(=O)[C@H](CC(C)C)NC(=O)[C@@H](NC(=O)[C@@H](N)[C@@H](C)CC)C(C)C)C(C)C)[C@@H](C)CC)C(=O)N[C@@H](CCCCN)C(=O)N[C@H](C(=O)N[C@@H](CC(C)C)C(=O)N[C@@H](CC(C)C)C(=O)N[C@@H](CCC(=O)O)C(=O)N[C@@H](CCC(N)=O)C(=O)N[C@@H](CCC(=O)O)C(=O)N[C@@H](CCCCN)C(=O)N[C@@H](CCC(N)=O)C(=O)N[C@@H](CCC(=O)O)C(=O)N[C@@H](CCCCN)C(=O)N[C@@H](CCC(=O)O)C(=O)N[C@@H](CCCCN)C(=O)N[C@@H](CCC(N)=O)C(=O)N[C@@H](CCC(N)=O)C(=O)N[C@@H](C)C(=O)N[C@@H](CCC(=O)O)C(=O)N[C@H](C(=O)N[C@@H](CC(N)=O)C(=O)N[C@@H](C)C(=O)N[C@@H](CCC(N)=O)C(=O)N[C@H](C(=O)N[C@@H](CC(C)C)C(=O)N[C@@H](C)C(=O)N[C@@H](CCC(N)=O)C(=O)N[C@H](C(N)=O)C(C)C)[C@@H](C)CC)[C@@H](C)O)[C@@H](C)CC)C(=O)O` [SEQ ID NO: 2] (H-IVLSLDVPIKLK([γGlu-Palmitoyl])KILLEQEKQEKEKQQAETNAQILAQV-NH2) returned an EC50 in data set [1] of 0.07 nM.

The term solubility denotes how much of the substance goes into solution per volume. Read a high solubility as a readily soluble substance. For `CC[C@H](C)[C@H](N)C(=O)N[C@H](C(=O)N[C@@H](CC(C)C)C(=O)N[C@@H](CO)C(=O)N[C@@H](CC(C)C)C(=O)N[C@@H](CC(=O)O)C(=O)N[C@@H](C(=O)N1CCC[C@H]1C(=O)N[C@H](C(=O)N[C@@H](CCCCN)C(=O)N[C@@H](CC(C)C)C(=O)N[C@@H](CCCCNC(=O)CC[C@H](NC(=O)CCCCCCCCCCCCCCC(=O)O)C(=O)O)C(=O)N[C@@H](CCC(N)=O)C(=O)N[C@H](C(=O)N[C@@H](CC(C)C)C(=O)N[C@@H](CC(C)C)C(=O)N[C@@H](CCCCN)C(=O)N[C@@H](CCC(N)=O)C(=O)N[C@@H](CCC(=O)O)C(=O)N[C@@H](CCCNC(=N)N)C(=O)N[C@@H](CCC(N)=O)C(=O)N[C@@H](CCCCN)C(=O)NC(C)(C)C(=O)N[C@@H](CCC(N)=O)C(=O)N[C@@H](CCCNC(=N)N)C(=O)N[C@@H](CCC(N)=O)C(=O)N[C@@H](CCC(N)=O)C(=O)N[C@@H](C)C(=O)N[C@@H](CCC(=O)O)C(=O)N[C@@H](CCCCN)C(=O)N[C@@H](CC(N)=O)C(=O)N[C@@H](CCCCN)C(=O)N[C@@H](CCC(N)=O)C(=O)N[C@H](C(=O)N[C@@H](CC(C)C)C(=O)N[C@@H](C)C(=O)N[C@@H](CCC(N)=O)C(=O)N[C@H](C(N)=O)C(C)C)[C@@H](C)CC)[C@@H](C)CC)[C@@H](C)CC)C(C)C)C(C)C` [compound 188] (H-IVLSLD[dV]PIKLK([γGlu-C16 diacid])QILLKQERQK[Aib]QRQQAEKNKQILAQV-NH2; N-terminus assumed), the CRF1/CRF2 ratio in data set [2] turned out to be 134. Further, the “% loss (chemical stability)” value in data set [3] (pH 4.5) was 0%; in data set [3] (pH 7.4), 40%. For the same molecule, the solubility at 1 h amounted to 8300 µg/mL (≈ 1710 µM) in data set [4] (pH 4.5, 100 mM acetate buffer) and 7900 µg/mL (≈ 1630 µM) in data set [4] (pH 7.4, 100 mM phosphate buffer). This molecule had an EC50 in data set [5] of 0.46 nM.

Source of the values: patent US12679878B2, “CRF2 receptor agonists and their use in therapy” (SANOFI, priority 2020, dated 2026).
